Key:
[1] = AUC in rat plasma at 3 mg/kg, po; format: ADME, organism-based; parameters: dose 3 mg/kg, route oral
[2] = system: Rattus norvegicus; assay: Inhibition of haloperidol-induced catalepsy in rat at 1 mg/kg, po after 1 hr; format: functional
[3] = species on record: Homo sapiens; assay: Selectivity for human adenosine A1 receptor over human adenosine A2A receptor
[4] = molecular target: Adenosine receptor A2a (Homo sapiens, UniProt P29274); assay: Displacement of [3H]SCH58261 from human adenosine A2A receptor expressed in HEK293 cells; format: cell-based
[5] = system: Rattus norvegicus; assay: Inhibition of haloperidol-induced catalepsy in rat at 1 mg/kg, po after 4 hrs; format: functional
[6] = system: Rattus norvegicus; assay: Inhibition of haloperidol-induced catalepsy in rat at 0.1 mg/kg, po after 1 hr; format: functional; conditions: read-out: INH
[7] = system: Rattus norvegicus; assay: Inhibition of haloperidol-induced catalepsy in rat at 0.3 mg/kg, po after 1 hr; format: functional; conditions: read-out: INH
[8] = system: Rattus norvegicus; assay: Inhibition of haloperidol-induced catalepsy in rat at 0.3 mg/kg, po after 4 hrs; format: functional; conditions: read-out: INH
[9] = system: Rattus norvegicus; assay: Inhibition of haloperidol-induced catalepsy in rat at 0.1 mg/kg, po after 4 hrs; format: functional
[10] = system: Rattus norvegicus; assay: Inhibition of haloperidol-induced catalepsy in rat at 0.3 mg/kg, po after 1 hr; parameters: scale not given: the % may be the effect or the level left
[11] = system: Rattus norvegicus; assay: Inhibition of haloperidol-induced catalepsy in rat at 3 mg/kg, po after 1 hr; format: functional
[12] = system: Rattus norvegicus; assay: Inhibition of haloperidol-induced catalepsy in rat at 3 mg/kg, po after 4 hrs; format: functional

Chain of Adenosine receptor A2a (P29274 whole entry): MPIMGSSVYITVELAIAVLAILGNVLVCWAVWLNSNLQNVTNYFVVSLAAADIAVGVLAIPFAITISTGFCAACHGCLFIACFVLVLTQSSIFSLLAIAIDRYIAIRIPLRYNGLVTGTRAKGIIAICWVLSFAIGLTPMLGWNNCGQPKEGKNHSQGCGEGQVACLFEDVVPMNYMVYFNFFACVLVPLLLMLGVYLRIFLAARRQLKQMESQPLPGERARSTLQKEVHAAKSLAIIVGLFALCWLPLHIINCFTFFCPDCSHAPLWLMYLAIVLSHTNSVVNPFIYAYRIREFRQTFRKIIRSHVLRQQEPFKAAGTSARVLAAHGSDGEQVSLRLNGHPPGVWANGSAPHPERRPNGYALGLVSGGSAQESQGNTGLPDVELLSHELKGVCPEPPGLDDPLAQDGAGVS

Compound	AUC [1]	inhibition in vivo at 1 mg/kg [2]	Ratio [3]	Ki [4]	inhibition in vivo at 1 mg/kg [5]	inhibition in vivo at 3 mg/kg [11]	inhibition in vivo at 3 mg/kg [12]	further results
COCCOc1ccc(N2CCN(CCN(C)c3cc4nc(-c5ccco5)nn4c(N)n3)CC2)cc1	521 ng·h/mL	15%	694	2.5 nM	0%			
COCCOc1ccc(N2CCN(CCOc3cc4nc(-c5ccc(Cl)o5)nn4c(N)n3)CC2)cc1	6 ng·h/mL		40	40 nM				
COCCOc1ccc(N2CCN(CCn3ncc4c3nc(N)n3nc(-c5ccco5)nc43)CC2)cc1 [PRELADENANT]		77%			70%			inhibition in vivo at 0.1 mg/kg [6]: 25%; inhibition in vivo at 0.3 mg/kg [7]: 60%; inhibition in vivo at 0.3 mg/kg [8]: 60%; inhibition in vivo at 0.1 mg/kg [9]: 60%
CCN(CCN1CCN(c2ccc(F)cc2F)CC1)c1cc2nc(-c3ccco3)nn2c(N)n1	50 ng·h/mL		312	0.9 nM				
COc1ccc(CN(C)c2cc3nc(-c4ccco4)nn3c(N)n2)cc1			40	46 nM				
COc1ccc(CCN(C)c2cc3nc(-c4ccco4)nn3c(N)n2)cc1			473	1.8 nM				
COc1ccc(CCCc2cc3nc(-c4ccco4)nn3c(N)n2)cc1			31	11.5 nM				
CN(CCc1ccc(F)cc1)c1cc2nc(-c3ccco3)nn2c(N)n1			248	2 nM				
CCN(CCc1ccc(F)cc1)c1cc2nc(-c3ccco3)nn2c(N)n1			525	3 nM				
COCCOc1ccc(N2CCN(CCN(C)c3cc4nc(-c5ccccc5)nn4c(N)n3)CC2)cc1			56	25 nM				
Nc1nc2c(cnn2CCN2CCN(c3ccc(F)cc3F)CC2)c2nc(-c3ccco3)nn12		75%			80%			Activity [10]: 75%
COc1ccc(CCSc2cc3nc(-c4ccco4)nn3c(N)n2)cc1			58	1.6 nM				
Nc1nc(SCCN2CCN(c3ccc(F)cc3F)CC2)cc2nc(-c3ccco3)nn12	229 ng·h/mL	50%	365	1.4 nM	5%	50%	45%	
CN(CCN1CCN(c2ccc(F)cc2F)CC1)c1cc2nc(-c3cnco3)nn2c(N)n1			7000	0.3 nM				
Nc1nc(N(CCN2CCN(c3ccc(F)cc3F)CC2)CC2CC2)cc2nc(-c3ccco3)nn12	17 ng·h/mL	40%	831	0.3 nM	34%	65%	41%	
COCCOc1ccc(N2CCN(CCN(CC3CC3)c3cc4nc(-c5ccco5)nn4c(N)n3)CC2)cc1	245 ng·h/mL	7%	234	0.8 nM	32%	65%	77%	

Compound	AUC [1]	inhibition in vivo at 1 mg/kg [2]	Ratio [3]	Ki [4]	inhibition in vivo at 1 mg/kg [5]	inhibition in vivo at 3 mg/kg [11]	inhibition in vivo at 3 mg/kg [12]	further results
COCCOc1ccc(N2CCN(CCSc3cc4nc(-c5ccco5)nn4c(N)n3)CC2)cc1	910 ng·h/mL	50%	965	1.5 nM	15%	65%	65%	
COc1ccc(CCNc2cc3nc(-c4ccco4)nn3c(N)n2)cc1			20	5.8 nM				
COc1ccc(CCOc2cc3nc(-c4ccco4)nn3c(N)n2)cc1			58	2.8 nM				
COCCOc1ccc(N2CCN(CCOc3cc4nc(-c5ccco5)nn4c(N)n3)CC2)cc1	943 ng·h/mL	25%	405	2.8 nM	25%			
COCCOc1ccc(N2CCN(CCN(CCOC)c3cc4nc(-c5ccco5)nn4c(N)n3)CC2)cc1	355 ng·h/mL	29%	338	0.7 nM	6%	57%	37%	
COCCOc1ccc(N2CCN(CCN(C)c3cc4nc(-c5cccc(C#N)c5)nn4c(N)n3)CC2)cc1	546 ng·h/mL		1070	0.7 nM		29%	31%	
Cc1nccnc1-c1nc2cc(N(C)CCN3CCN(c4ccc(F)cc4F)CC3)nc(N)n2n1			7370	0.3 nM				
Nc1nc(NCCN2CCN(c3ccc(F)cc3F)CC2)cc2nc(-c3ccco3)nn12			262	1.5 nM				
COc1ccc(CCCN(C)c2cc3nc(-c4ccco4)nn3c(N)n2)cc1			76	5.7 nM				
COCCOc1ccc(N2CCN(CCNc3cc4nc(-c5ccco5)nn4c(N)n3)CC2)cc1	103 ng·h/mL		145	9.5 nM				
COCCN(CCN1CCN(c2ccc(F)cc2F)CC1)c1cc2nc(-c3ccco3)nn2c(N)n1			1060	0.5 nM		56%	57%	
Nc1nc(OCCN2CCN(c3ccc(F)cc3F)CC2)cc2nc(-c3ccco3)nn12	187 ng·h/mL	45%	275	6 nM		25%	0%	
CCN(CCN1CCN(c2ccc(OCCOC)cc2)CC1)c1cc2nc(-c3ccco3)nn2c(N)n1	230 ng·h/mL		102	1.5 nM				
COCCN(CCc1ccc(F)cc1)c1cc2nc(-c3ccco3)nn2c(N)n1			566	1 nM				
CN(CCN1CCN(c2ccc(F)cc2F)CC1)c1cc2nc(-c3cccc(C#N)c3)nn2c(N)n1	1300 ng·h/mL		620	1.8 nM		35%	14%	
CN(CCN1CCN(c2ccc(F)cc2F)CC1)c1cc2nc(-c3ccco3)nn2c(N)n1	53 ng·h/mL	50%	1580	1 nM	30%	75%	35%	
